Reference: patent publication EP4745137A1 (Gluetacs Therapeutics (Shanghai) Co., Ltd., priority 2023, dated 2025)

What was measured:
WEE1 = molecular target: T1, WEE1 (Homo sapiens, UniProt P30291+Q96SW2); test: Western-blot assay of substrate protein degradation in hPBMCs, WEE1; assay type: cell-based; conditions: 24 hours of compound treatment, compounds tested at 50 nM and 500 nM (concentration of the table not stated)
T1 construct: endogenous in cells; host or cells: hPBMCs (Milecell Biotechnologies)

IKZF1 = molecular target: T2, IKZF1 (Homo sapiens, UniProt Q13422+Q96SW2); test: Western-blot assay of substrate protein degradation in hPBMCs, IKZF1; assay type: cell-based; conditions: 24 hours of compound treatment, compounds tested at 50 nM and 500 nM (concentration of the table not stated)
T2 construct: endogenous in cells; host or cells: hPBMCs (Milecell Biotechnologies)

IKZF2 = molecular target: T3, IKZF2 (Homo sapiens, UniProt Q96SW2+Q9UKS7); test: Western-blot assay of substrate protein degradation in hPBMCs, IKZF2; assay type: cell-based; conditions: 24 hours of compound treatment, compounds tested at 50 nM and 500 nM (concentration of the table not stated)
T3 construct: endogenous in cells; host or cells: hPBMCs (Milecell Biotechnologies)

IKZF3 = molecular target: T4, IKZF3 (Homo sapiens, UniProt Q96SW2+Q9UKT9); test: Western-blot assay of substrate protein degradation in hPBMCs, IKZF3; assay type: cell-based; conditions: 24 hours of compound treatment, compounds tested at 50 nM and 500 nM (concentration of the table not stated)
T4 construct: endogenous in cells; host or cells: hPBMCs (Milecell Biotechnologies)

CK1α = molecular target: T5, CK1α (Homo sapiens, UniProt P48729+Q96SW2); test: Western-blot assay of substrate protein degradation in hPBMCs, CK1α; assay type: cell-based; conditions: 24 hours of compound treatment, compounds tested at 50 nM and 500 nM (concentration of the table not stated)
T5 construct: endogenous in cells; host or cells: hPBMCs (Milecell Biotechnologies)

GSPT1 = molecular target: T6, GSPT1 (Homo sapiens, UniProt P15170+Q96SW2); test: Western-blot assay of substrate protein degradation in hPBMCs, GSPT1; assay type: cell-based; conditions: 24 hours of compound treatment, compounds tested at 50 nM and 500 nM (concentration of the table not stated)
T6 construct: endogenous in cells; host or cells: hPBMCs (Milecell Biotechnologies)

[1] = molecular target: T7, human Cereblon WT GST-tagged protein (Homo sapiens, UniProt Q96SW2); test: CRBN-binding affinity by HTRF (CEREBLON BINDING kit); conditions: HTRF inhibitory activity, CEREBLON BINDING kit; read-out: HTRF IC50
T7 construct: purchased CISBIO 64BDCRBNPEH

MM.1R = test: Tumor cell proliferation inhibition (CellTiter-Meiluncell Luminescent Cell Viability Assay), MM.1R; conditions: Homo sapiens, 96 h, read-out: inhibitory activity (IC50, nM) against tumor cells proliferation, MM.1R
CAL-62 = test: Tumor cell proliferation inhibition (CellTiter-Meiluncell Luminescent Cell Viability Assay), CAL-62; conditions: Homo sapiens, CAL-62, 96 h, read-out: inhibitory activity (IC50, nM) against tumor cells proliferation, CAL-62
[2] = system: Human acute T lymphocytic leukemia cells (Molt-4); test: Tumor cell proliferation inhibition (CellTiter-Meiluncell Luminescent Cell Viability Assay), Molt-4; conditions: MOLT-4, 96 h, read-out: inhibitory activity (IC50, nM) against tumor cells proliferation, Molt 4
NCI-H1975 = test: Tumor cell proliferation inhibition (CellTiter-Meiluncell Luminescent Cell Viability Assay), NCI-H1975; conditions: Homo sapiens, NCI-H1975, 96 h, read-out: inhibitory activity (IC50, nM) against tumor cells proliferation, H1975
[3] = system: Human breast cancer cells (MDA-MB-231); test: Tumor cell proliferation inhibition (CellTiter-Meiluncell Luminescent Cell Viability Assay), MDA-MB-231; conditions: MDA-MB-231, 96 h, read-out: inhibitory activity (IC50, nM) against tumor cells proliferation, MDA-MB-231
Jurkat = test: Tumor cell proliferation inhibition (CellTiter-Meiluncell Luminescent Cell Viability Assay), Jurkat; conditions: Homo sapiens, 96 h, read-out: inhibitory activity (IC50, nM) against tumor cells proliferation, Jurkat

T5 sequence (P48729 whole entry): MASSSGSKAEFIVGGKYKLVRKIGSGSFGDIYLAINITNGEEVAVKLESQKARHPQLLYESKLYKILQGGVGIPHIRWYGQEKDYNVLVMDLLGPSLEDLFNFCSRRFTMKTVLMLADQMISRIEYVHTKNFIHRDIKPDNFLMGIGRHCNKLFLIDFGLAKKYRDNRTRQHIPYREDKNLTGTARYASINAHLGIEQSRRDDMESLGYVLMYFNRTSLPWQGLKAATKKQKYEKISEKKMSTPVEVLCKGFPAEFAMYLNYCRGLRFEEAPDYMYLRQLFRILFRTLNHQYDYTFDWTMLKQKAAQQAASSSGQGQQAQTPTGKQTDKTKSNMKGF
T5 sequence (Q96SW2 whole entry): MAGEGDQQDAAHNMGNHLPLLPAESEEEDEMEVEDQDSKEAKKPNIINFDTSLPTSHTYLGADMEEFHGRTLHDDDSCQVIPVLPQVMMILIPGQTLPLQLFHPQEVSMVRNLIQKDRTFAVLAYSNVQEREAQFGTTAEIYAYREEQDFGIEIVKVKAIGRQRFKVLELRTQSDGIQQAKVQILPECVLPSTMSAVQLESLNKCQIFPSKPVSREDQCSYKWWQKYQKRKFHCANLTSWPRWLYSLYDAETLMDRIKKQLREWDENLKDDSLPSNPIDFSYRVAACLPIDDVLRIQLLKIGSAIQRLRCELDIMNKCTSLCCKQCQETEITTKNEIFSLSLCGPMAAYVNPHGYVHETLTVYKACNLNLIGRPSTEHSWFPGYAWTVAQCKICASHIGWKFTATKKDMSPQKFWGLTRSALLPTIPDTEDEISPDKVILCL
T5 sequence (Q16531 whole entry partner): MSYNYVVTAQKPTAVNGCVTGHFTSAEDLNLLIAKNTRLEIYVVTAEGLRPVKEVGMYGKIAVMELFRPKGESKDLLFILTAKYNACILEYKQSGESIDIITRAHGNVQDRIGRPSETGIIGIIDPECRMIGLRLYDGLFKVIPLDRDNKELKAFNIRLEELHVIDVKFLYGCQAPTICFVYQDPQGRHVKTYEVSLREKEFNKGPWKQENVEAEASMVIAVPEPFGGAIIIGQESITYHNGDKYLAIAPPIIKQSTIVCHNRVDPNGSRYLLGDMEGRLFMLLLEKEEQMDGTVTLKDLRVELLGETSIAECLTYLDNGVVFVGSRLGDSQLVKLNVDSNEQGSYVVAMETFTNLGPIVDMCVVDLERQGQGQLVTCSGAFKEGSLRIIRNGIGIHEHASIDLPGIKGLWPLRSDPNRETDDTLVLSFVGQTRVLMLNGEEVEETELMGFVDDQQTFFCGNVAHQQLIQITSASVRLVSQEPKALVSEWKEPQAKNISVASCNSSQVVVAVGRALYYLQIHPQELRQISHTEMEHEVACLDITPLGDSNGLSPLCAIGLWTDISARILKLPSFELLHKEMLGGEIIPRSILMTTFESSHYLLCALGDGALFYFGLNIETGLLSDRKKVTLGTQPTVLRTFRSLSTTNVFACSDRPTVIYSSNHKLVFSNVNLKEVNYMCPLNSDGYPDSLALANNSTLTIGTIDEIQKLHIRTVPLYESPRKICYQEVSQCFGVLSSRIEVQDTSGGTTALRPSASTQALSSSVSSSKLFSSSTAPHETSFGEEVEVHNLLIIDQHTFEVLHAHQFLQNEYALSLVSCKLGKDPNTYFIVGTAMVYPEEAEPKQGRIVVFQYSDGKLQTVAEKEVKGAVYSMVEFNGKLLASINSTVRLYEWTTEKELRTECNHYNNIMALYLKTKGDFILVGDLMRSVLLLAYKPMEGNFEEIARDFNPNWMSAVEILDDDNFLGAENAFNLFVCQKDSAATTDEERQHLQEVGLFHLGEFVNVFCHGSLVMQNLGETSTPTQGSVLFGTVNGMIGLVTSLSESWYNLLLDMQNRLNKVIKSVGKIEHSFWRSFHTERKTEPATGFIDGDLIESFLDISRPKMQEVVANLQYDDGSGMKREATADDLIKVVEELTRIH
T3 sequence (Q9UKS7 whole entry): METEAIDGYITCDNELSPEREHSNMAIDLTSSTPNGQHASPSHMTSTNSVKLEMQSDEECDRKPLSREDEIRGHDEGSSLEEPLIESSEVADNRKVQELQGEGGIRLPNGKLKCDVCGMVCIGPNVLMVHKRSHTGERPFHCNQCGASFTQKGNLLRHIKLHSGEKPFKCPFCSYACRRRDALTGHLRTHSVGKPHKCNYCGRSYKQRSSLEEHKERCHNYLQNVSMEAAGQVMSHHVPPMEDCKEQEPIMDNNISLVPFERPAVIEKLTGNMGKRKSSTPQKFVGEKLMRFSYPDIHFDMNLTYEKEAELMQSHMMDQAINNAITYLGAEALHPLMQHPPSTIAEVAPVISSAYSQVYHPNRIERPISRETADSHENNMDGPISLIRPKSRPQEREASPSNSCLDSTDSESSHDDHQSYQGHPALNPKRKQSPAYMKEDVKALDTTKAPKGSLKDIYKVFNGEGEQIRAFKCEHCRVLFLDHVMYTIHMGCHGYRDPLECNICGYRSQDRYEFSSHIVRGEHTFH
T3 sequence (Q96SW2 whole entry): as the sequence (Q96SW2 whole entry) above
T3 sequence (Q16531 whole entry partner): as the sequence (Q16531 whole entry partner) above
T7 sequence (Q96SW2 whole entry): as the sequence (Q96SW2 whole entry) above
T1 sequence (P30291 whole entry): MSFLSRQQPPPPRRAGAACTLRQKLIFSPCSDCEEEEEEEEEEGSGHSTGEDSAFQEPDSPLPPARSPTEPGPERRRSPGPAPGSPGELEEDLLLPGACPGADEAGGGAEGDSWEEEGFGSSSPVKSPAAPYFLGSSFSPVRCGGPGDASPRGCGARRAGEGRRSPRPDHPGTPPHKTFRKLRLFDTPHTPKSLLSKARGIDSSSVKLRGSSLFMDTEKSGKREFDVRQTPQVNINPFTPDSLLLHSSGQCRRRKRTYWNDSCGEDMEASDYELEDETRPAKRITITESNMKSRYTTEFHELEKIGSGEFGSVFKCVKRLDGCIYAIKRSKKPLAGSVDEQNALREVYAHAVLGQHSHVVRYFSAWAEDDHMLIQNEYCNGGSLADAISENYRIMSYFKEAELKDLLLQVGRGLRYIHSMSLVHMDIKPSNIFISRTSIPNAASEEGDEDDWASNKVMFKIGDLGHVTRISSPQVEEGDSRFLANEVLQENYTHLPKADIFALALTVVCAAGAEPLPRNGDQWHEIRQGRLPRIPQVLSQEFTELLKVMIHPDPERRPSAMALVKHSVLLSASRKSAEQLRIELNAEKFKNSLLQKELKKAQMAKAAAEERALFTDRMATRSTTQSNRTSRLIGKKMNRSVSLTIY
T1 sequence (Q96SW2 whole entry): as the sequence (Q96SW2 whole entry) above
T1 sequence (Q16531 whole entry partner): as the sequence (Q16531 whole entry partner) above
T6 sequence (P15170 whole entry): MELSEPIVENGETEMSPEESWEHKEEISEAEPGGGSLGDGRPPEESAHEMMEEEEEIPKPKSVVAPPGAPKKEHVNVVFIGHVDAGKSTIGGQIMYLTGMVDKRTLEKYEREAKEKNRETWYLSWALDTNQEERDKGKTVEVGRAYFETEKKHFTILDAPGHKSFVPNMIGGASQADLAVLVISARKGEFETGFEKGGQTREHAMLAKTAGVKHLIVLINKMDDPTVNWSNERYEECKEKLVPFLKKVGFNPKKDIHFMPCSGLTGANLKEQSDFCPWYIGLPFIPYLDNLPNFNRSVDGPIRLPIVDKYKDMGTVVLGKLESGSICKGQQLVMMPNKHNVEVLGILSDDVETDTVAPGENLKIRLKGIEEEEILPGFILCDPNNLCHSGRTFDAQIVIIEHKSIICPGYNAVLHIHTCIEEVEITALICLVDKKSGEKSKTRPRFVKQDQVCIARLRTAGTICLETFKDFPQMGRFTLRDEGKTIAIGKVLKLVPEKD
T6 sequence (Q96SW2 whole entry): as the sequence (Q96SW2 whole entry) above
T6 sequence (Q16531 whole entry partner): as the sequence (Q16531 whole entry partner) above
T4 sequence (Q9UKT9 whole entry): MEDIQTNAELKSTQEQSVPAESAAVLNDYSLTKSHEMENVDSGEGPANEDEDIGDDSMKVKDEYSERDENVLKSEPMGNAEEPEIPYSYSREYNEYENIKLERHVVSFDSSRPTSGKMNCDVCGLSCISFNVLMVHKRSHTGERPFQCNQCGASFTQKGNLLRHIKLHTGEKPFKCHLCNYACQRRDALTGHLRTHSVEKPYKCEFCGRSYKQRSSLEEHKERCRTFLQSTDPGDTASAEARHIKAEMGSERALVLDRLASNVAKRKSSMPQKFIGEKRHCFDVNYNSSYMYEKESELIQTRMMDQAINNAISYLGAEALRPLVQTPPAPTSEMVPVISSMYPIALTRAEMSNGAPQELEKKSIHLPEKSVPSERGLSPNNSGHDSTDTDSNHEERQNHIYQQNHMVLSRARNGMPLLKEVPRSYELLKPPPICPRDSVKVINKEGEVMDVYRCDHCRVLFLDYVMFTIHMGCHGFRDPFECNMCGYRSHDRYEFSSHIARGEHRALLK
T4 sequence (Q96SW2 whole entry): as the sequence (Q96SW2 whole entry) above
T4 sequence (Q16531 whole entry partner): as the sequence (Q16531 whole entry partner) above

SMILES	IC50 [1] [nM]	IC50 (MM.1R) [nM]	IC50 (CAL-62) [nM]	IC50 [2] [nM]	IC50 (NCI-H1975) [nM]	IC50 [3] [nM]	IC50 (Jurkat) [nM]	Weel substrate protein remaining % (WEE1)	IKZF 1 substrate protein remaining % (IKZF1)	IKZF2 substrate protein remaining % (IKZF2)	IKZF3 substrate protein remaining % (IKZF3)	CK1a substrate protein remaining % (CK1α)	GSPT1 substrate protein remaining % (GSPT1)
O=C1CCC(N2Cc3cc(CN4CCN(c5ccc(F)c(F)c5)CC4)ccc3C2=O)C(=O)N1 (centres unmarked) [GT-04529, 3-(5-((4-(3,4-difluorophenyl)piperazin-1-yl)methyl)-1-oxoisoindolin-2-yl)piperidine-2,6-dione]	1500 to 1900	50 to 100	100 to 500	10 to 50			10 to 50	A (0% ≤ substrate protein remaining % ≤ 80%)	A (0% ≤ substrate protein remaining % ≤ 80%)	A (0% ≤ substrate protein remaining % ≤ 80%)	A (0% ≤ substrate protein remaining % ≤ 80%)	A (0% ≤ substrate protein remaining % ≤ 80%)	A (0% ≤ substrate protein remaining % ≤ 80%)
O=C1CCC(N2Cc3cc(CN4CCN(c5nccc(Cl)c5Cl)CC4)ccc3C2=O)C(=O)N1 (centres unmarked) [GT-04532, 3-(5-((4-(3,4-dichloropyridin-2-yl)piperazin-1-yl)methyl)-1-oxoisoindolin-2-yl)piperidine-2,6-dione]	500 to 1000	10 to 50	10 to 50	10 to 50			10 to 50	A (0% ≤ substrate protein remaining % ≤ 80%)	A (0% ≤ substrate protein remaining % ≤ 80%)	A (0% ≤ substrate protein remaining % ≤ 80%)	A (0% ≤ substrate protein remaining % ≤ 80%)	A (0% ≤ substrate protein remaining % ≤ 80%)	A (0% ≤ substrate protein remaining % ≤ 80%)
O=C1CCC(N2Cc3cc(CN4CCN(c5cc(F)ccc5F)CC4)ccc3C2=O)C(=O)N1 (centres unmarked) [GT-04539, 3-(5-((4-(2,5-difluorophenyl)piperazin-1-yl)methyl)-1-oxoisoindolin-2-yl)piperidine-2,6-dione]	500 to 1000	10 to 50	50 to 100	10 to 50			10 to 50	A (0% ≤ substrate protein remaining % ≤ 80%)	A (0% ≤ substrate protein remaining % ≤ 80%)	A (0% ≤ substrate protein remaining % ≤ 80%)	A (0% ≤ substrate protein remaining % ≤ 80%)	A (0% ≤ substrate protein remaining % ≤ 80%)	A (0% ≤ substrate protein remaining % ≤ 80%)

Continued, in another order:

IC50 [1] [nM]	IC50 (MM.1R) [nM]	IC50 (CAL-62) [nM]	IC50 [2] [nM]	IC50 (NCI-H1975) [nM]	IC50 [3] [nM]	IC50 (Jurkat) [nM]	SMILES	Weel substrate protein remaining % (WEE1)	IKZF 1 substrate protein remaining % (IKZF1)	IKZF2 substrate protein remaining % (IKZF2)	IKZF3 substrate protein remaining % (IKZF3)	CK1a substrate protein remaining % (CK1α)	GSPT1 substrate protein remaining % (GSPT1)
500 to 1000	1 to 5	5 to 10	1 to 5	10 to 50	10 to 50		O=C1CCC(N2Cc3c(ccc(CN4CCN(c5cccc(Cl)c5Cl)CC4)c3F)C2=O)C(=O)N1 (centres unmarked) [GT-04526, 3-(5-((4-(2,3-dichlorophenyl)piperazin-1-yl)methyl)-4-fluoro-1-oxoisoindolin-2-yl)piperidine-2,6-dione]	A (0% ≤ substrate protein remaining % ≤ 80%)	A (0% ≤ substrate protein remaining % ≤ 80%)	A (0% ≤ substrate protein remaining % ≤ 80%)	A (0% ≤ substrate protein remaining % ≤ 80%)	A (0% ≤ substrate protein remaining % ≤ 80%)	A (0% ≤ substrate protein remaining % ≤ 80%)
< 500	100 to 500	100 to 500	50 to 100			50 to 100	O=C1CCC(N2Cc3cc(CN4CCN(c5cncc(Cl)c5Cl)CC4)ccc3C2=O)C(=O)N1 (centres unmarked) [GT-04538, 3-(5-((4-(4,5-dichloropyridin-3-yl)piperazin-1-yl)methyl)-1-oxoisoindolin-2-yl)piperidine-2,6-dione]	A (0% ≤ substrate protein remaining % ≤ 80%)	A (0% ≤ substrate protein remaining % ≤ 80%)	A (0% ≤ substrate protein remaining % ≤ 80%)	A (0% ≤ substrate protein remaining % ≤ 80%)	A (0% ≤ substrate protein remaining % ≤ 80%)	A (0% ≤ substrate protein remaining % ≤ 80%)
